Assay results as given in ChEMBL document CHEMBL5055683, “Synthetic Sansanmycin Analogues as Potent Mycobacterium tuberculosis Translocase I Inhibitors” (J Med Chem, 2021).
Converted amounts (≈) assume the structure as drawn. The source made the active and inactive calls. No cut-off for these calls is given here.

How the values were obtained:
[1] = tested on: Mycobacterium tuberculosis H37Rv; assay: Antimycobacterial activity against Mycobacterium tuberculosis H37Rv assessed as reduction in bacterial growth incubated for 5 days by resazurin assay; assay type: functional; conditions: 120 h, time 5 day
[2] = Inhibition of Mycobacterium tuberculosis MurX using UDP-MurNAc-dansylpentapeptide as substrate by fluorescence assay
[3] = tested on: Mycobacterium tuberculosis H37Rv; assay: Antimycobacterial activity against Mycobacterium tuberculosis H37Rv infected in human THP-1 macrophages assessed as reduction in microbial growth incubated for 72 hrs; assay type: functional
Mycobacterium marinum [4] = assay: Antimycobacterial activity against Mycobacterium marinum infected in zebrafish assessed as reduction in bacterial burden at 100 uM after 5 days post infection by microscopic analysis; assay type: functional, organism-based; conditions: time 5.0 day
[5] = tested on: Staphylococcus epidermidis; assay: Antibacterial activity against Staphylococcus epidermidis assessed as reduction in bacterial growth measured every 1 hr for 16 to 20 hrs; assay type: functional; conditions: time 16-20 hrs
[6] = tested on: Mycobacteroides abscessus; assay: Antimycobacterial activity against Mycobacterium abscessus RA 16 assessed as reduction in bacterial growth measured every 1 hr for 16 to 20 hrs; assay type: functional; conditions: time 16-20 hrs
Staphylococcus aureus = assay: Antibacterial activity against Staphylococcus aureus ATCC 29213 assessed as reduction in bacterial growth measured every 1 hr for 16 to 20 hrs; assay type: functional; conditions: time 16-20 hrs
Enterococcus faecium = assay: Antibacterial activity against Enterococcus faecium ATCC 6569 assessed as reduction in bacterial growth measured every 1 hr for 16 to 20 hrs; assay type: functional; conditions: time 16-20 hrs
Pseudomonas aeruginosa = assay: Antibacterial activity against Pseudomonas aeruginosa ATCC 27853 assessed as reduction in bacterial growth measured every 1 hr for 16 to 20 hrs; assay type: functional; conditions: time 16-20 hrs
[7] = tested on: Mycolicibacterium fortuitum; assay: Antimycobacterial activity against Mycobacterium fortuitum RA 17 assessed as reduction in bacterial growth measured every 1 hr for 16 to 20 hrs; assay type: functional; conditions: time 16-20 hrs
Mycobacterium avium = assay: Antimycobacterial activity against Mycobacterium avium CA 6 assessed as reduction in bacterial growth measured every 1 hr for 16 to 20 hrs; assay type: functional; conditions: time 16-20 hrs
Bacillus subtilis = assay: Antibacterial activity against Bacillus subtilis 168 assessed as reduction in bacterial growth measured every 1 hr for 16 to 20 hrs; assay type: functional; conditions: time 16-20 hrs
Escherichia coli = assay: Antibacterial activity against Escherichia coli BW25113 assessed as reduction in bacterial growth measured every 1 hr for 16 to 20 hrs; assay type: functional; conditions: time 16-20 hrs
[8] = tested on: Mycolicibacterium fortuitum; assay: Antimycobacterial activity against Mycobacterium fortuitum PN assessed as reduction in bacterial growth measured every 1 hr for 16 to 20 hrs; assay type: functional; conditions: time 16-20 hrs
[9] = tested on: Mycobacterium tuberculosis; assay: Antimycobacterial activity against Mycobacterium tuberculosis mc2 6230 assessed as reduction in bacterial growth incubated for 10 days by time-kill kinetics method; assay type: functional; conditions: mc2 6230, 240 h, time 10 day
[10] = tested on: Mycobacterium tuberculosis; assay: Bacteriostatic activity against Mycobacterium tuberculosis mc2 6230 at 10 times MIC after 28 days by time-kill kinetics method; assay type: functional, organism-based; conditions: time 28.0 day
[11] = Antimycobacterial activity against Mycobacterium abscessus subsp. abscessus assessed as reduction in bacterial growth measured every 1 hr for 16 to 20 hrs; assay type: functional; conditions: Mycobacteroides abscessus; time 16-20 hrs
Mycobacterium marinum [12] = assay: Antimycobacterial activity against Mycobacterium marinum infected in zebrafish assessed as reduction in bacterial burden at 100 uM after 3 days post infection by microscopic analysis; assay type: functional, organism-based; conditions: time 3.0 day

| SMILES | MIC50 [1] [µM] | IC50 [2] [nM] | MIC50 [3] [µM] | further results |
| --- | --- | --- | --- | --- |
| COC(=O)[C@H](Cc1c[nH]c2ccccc12)NC(=O)N[C@@H](CC1CCCCC1)C(=O)N[C@H](C(=O)NC[C@H]1C[C@@H](O)[C@H](n2ccc(=O)[nH]c2=O)O1)[C@H](C)N(C)C(=O)CN | 0.0397 (≈ 0.0316 µg/mL) |  |  |  |
| CCCCCCNC(=O)[C@H](Cc1c[nH]c2ccccc12)NC(=O)N[C@@H](Cc1ccc2ccccc2c1)C(=O)N[C@H](C(=O)NC[C@H]1C[C@@H](O)[C@H](n2ccc(=O)[nH]c2=O)O1)[C@H](C)N(C)C(=O)CN | 0.0925 (≈ 0.0841 µg/mL) | 49 | 2.1 |  |
| COC(=O)[C@H](Cc1c[nH]c2ccccc12)NC(=O)N[C@@H](Cc1ccc2ccccc2c1)C(=O)N[C@H](C(=O)NC[C@H]1C[C@@H](O)[C@H](n2ccc(=O)[nH]c2=O)O1)[C@H](C)N(C)C(=O)CN | 0.0652 (≈ 0.0548 µg/mL) |  |  |  |
| CCCCCCCCCCCCOC(=O)[C@H](Cc1c[nH]c2ccccc12)NC(=O)N[C@@H](Cc1ccc2ccccc2c1)C(=O)N[C@H](C(=O)NC[C@H]1C[C@@H](O)[C@H](n2ccc(=O)[nH]c2=O)O1)[C@H](C)N(C)C(=O)CN | 0.192 (≈ 0.191 µg/mL) |  |  |  |
| CCCCCCOC(=O)[C@H](Cc1c[nH]c2ccccc12)NC(=O)N[C@@H](CC1CCCCC1)C(=O)N[C@H](C(=O)NC[C@H]1C[C@@H](O)[C@H](n2ccc(=O)[nH]c2=O)O1)[C@H](C)N(C)C(=O)CN | 0.0172 (≈ 0.0149 µg/mL) | 1390 | 9.5 |  |
| C[C@@H]([C@H](NC(=O)[C@H](Cc1ccc2ccccc2c1)NC(=O)N[C@@H](Cc1c[nH]c2ccccc12)C(=O)O)C(=O)NC[C@H]1C[C@@H](O)[C@H](n2ccc(=O)[nH]c2=O)O1)N(C)C(=O)CN | 0.18 (≈ 0.149 µg/mL) |  | 4.3 |  |
| C[C@@H]([C@H](NC(=O)[C@H](CC1CCCCC1)NC(=O)N[C@@H](Cc1c[nH]c2ccccc12)C(=O)O)C(=O)NC[C@H]1C[C@@H](O)[C@H](n2ccc(=O)[nH]c2=O)O1)N(C)C(=O)CN | 0.08 (≈ 0.0625 µg/mL) | 54 | 1.6 |  |
| C[C@@H]([C@H](NC(=O)[C@H](Cc1ccc2ccccc2c1)NC(=O)N[C@@H](Cc1c[nH]c2ccccc12)C(=O)OCc1ccccc1)C(=O)NC[C@H]1C[C@@H](O)[C@H](n2ccc(=O)[nH]c2=O)O1)N(C)C(=O)CN | 0.0132 (≈ 0.0121 µg/mL) | 1380 | 5.1 |  |
| CCCCCCCCCCCCOC(=O)[C@H](Cc1c[nH]c2ccccc12)NC(=O)N[C@@H](CC1CCCCC1)C(=O)N[C@H](C(=O)NC[C@H]1C[C@@H](O)[C@H](n2ccc(=O)[nH]c2=O)O1)[C@H](C)N(C)C(=O)CN | 0.142 (≈ 0.135 µg/mL) |  |  |  |
| C[C@@H]([C@H](NC(=O)[C@H](CC1CCCCC1)NC(=O)N[C@@H](Cc1c[nH]c2ccccc12)C(=O)OCC(C)(C)C)C(=O)NC[C@H]1C[C@@H](O)[C@H](n2ccc(=O)[nH]c2=O)O1)N(C)C(=O)CN | 0.0059 (≈ 0.00503 µg/mL) | 712 | 12.5 |  |
| CO[C@H]1/C=C/O[C@@]2(C)Oc3c(C)c(O)c4c(O)c(c(/C=N/N5CCN(C)CC5)c(O)c4c3C2=O)NC(=O)/C(C)=C\C=C\[C@H](C)[C@H](O)[C@@H](C)[C@@H](O)[C@@H](C)[C@H](OC(C)=O)[C@@H]1C [RIFAMPIN] | 0.00153 (≈ 0.00126 µg/mL) |  |  | Activity (Mycobacterium marinum [4]): Active |
| C[C@@H]([C@H](NC(=O)[C@H](CC1CCCCC1)NC(=O)N[C@@H](Cc1c[nH]c2ccccc12)C(=O)NCC(C)(C)C)C(=O)NC[C@H]1C[C@@H](O)[C@H](n2ccc(=O)[nH]c2=O)O1)N(C)C(=O)CN | 0.0225 (≈ 0.0191 µg/mL) | 60 | 6.7 | MIC [5]: > 132 µM; MIC [6]: 23 µM (≈ 19.6 µg/mL); MIC (Staphylococcus aureus): > 132 µM; MIC (Enterococcus faecium): > 132 µM; MIC (Pseudomonas aeruginosa): > 132 µM; MIC [7]: 1 µM (≈ 0.851 µg/mL); MIC (Mycobacterium avium): 1 µM (≈ 0.851 µg/mL); MIC (Bacillus subtilis): > 132 µM; MIC (Escherichia coli): 88 µM (≈ 74.9 µg/mL); MIC [8]: 1 µM (≈ 0.851 µg/mL); MIC [9]: 0.313 µM (≈ 0.266 µg/mL); Activity [10]: inactive; MIC [11]: 23 µM (≈ 19.6 µg/mL) |
| C[C@@H]([C@H](NC(=O)[C@H](Cc1ccc2ccccc2c1)NC(=O)N[C@@H](Cc1c[nH]c2ccccc12)C(=O)NCC(C)(C)C)C(=O)NC[C@H]1C[C@@H](O)[C@H](n2ccc(=O)[nH]c2=O)O1)N(C)C(=O)CN | 0.0419 (≈ 0.0375 µg/mL) | 20 | 1.2 | MIC [5]: > 132 µM; Activity (Mycobacterium marinum [12]): Active; MIC [6]: 13 µM (≈ 11.6 µg/mL); MIC (Staphylococcus aureus): > 132 µM; MIC (Enterococcus faecium): > 132 µM; MIC (Pseudomonas aeruginosa): > 132 µM; MIC [7]: 1 µM (≈ 0.895 µg/mL); MIC (Mycobacterium avium): 1 µM (≈ 0.895 µg/mL); MIC (Bacillus subtilis): 132 µM (≈ 118 µg/mL); MIC (Escherichia coli): 132 µM (≈ 118 µg/mL); MIC [8]: 2 µM (≈ 1.79 µg/mL); MIC [9]: 0.181 µM (≈ 0.162 µg/mL); Activity [10]: Active; MIC [11]: 26 µM (≈ 23.3 µg/mL) |
| C[C@@H]([C@H](NC(=O)[C@H](CC1CCCCC1)NC(=O)N[C@@H](Cc1c[nH]c2ccccc12)C(=O)OCc1ccccc1)C(=O)NC[C@H]1C[C@@H](O)[C@H](n2ccc(=O)[nH]c2=O)O1)N(C)C(=O)CN | 0.0085 (≈ 0.00741 µg/mL) | 614 | 11.3 |  |
| C[C@@H]([C@H](NC(=O)[C@H](Cc1ccc2ccccc2c1)NC(=O)N[C@@H](Cc1c[nH]c2ccccc12)C(=O)OCC(C)(C)C)C(=O)NC[C@H]1C[C@@H](O)[C@H](n2ccc(=O)[nH]c2=O)O1)N(C)C(=O)CN | 0.021 (≈ 0.0188 µg/mL) | 801 | 1.5 |  |
| C[C@@H]([C@H](NC(=O)[C@H](Cc1ccc2ccccc2c1)NC(=O)N[C@@H](Cc1c[nH]c2ccccc12)C(=O)NCc1ccccc1)C(=O)NC[C@H]1C[C@@H](O)[C@H](n2ccc(=O)[nH]c2=O)O1)N(C)C(=O)CN | 0.0741 (≈ 0.0678 µg/mL) | 34 | 1.9 |  |
| C[C@@H]([C@H](NC(=O)[C@H](CC1CCCCC1)NC(=O)N[C@@H](Cc1c[nH]c2ccccc12)C(=O)NCc1ccccc1)C(=O)NC[C@H]1C[C@@H](O)[C@H](n2ccc(=O)[nH]c2=O)O1)N(C)C(=O)CN | 0.0454 (≈ 0.0395 µg/mL) | 66 | 4.6 |  |
| CCCCCCNC(=O)[C@H](Cc1c[nH]c2ccccc12)NC(=O)N[C@@H](CC1CCCCC1)C(=O)N[C@H](C(=O)NC[C@H]1C[C@@H](O)[C@H](n2ccc(=O)[nH]c2=O)O1)[C@H](C)N(C)C(=O)CN | 0.124 (≈ 0.107 µg/mL) | 75 | > 100 |  |
| CCCCCCOC(=O)[C@H](Cc1c[nH]c2ccccc12)NC(=O)N[C@@H](Cc1ccc2ccccc2c1)C(=O)N[C@H](C(=O)NC[C@H]1C[C@@H](O)[C@H](n2ccc(=O)[nH]c2=O)O1)[C@H](C)N(C)C(=O)CN | 0.0269 (≈ 0.0245 µg/mL) | 2670 | 0.5 |  |
